Measurements: US10072034B2, “Kinase inhibitors” (Respivert Limited, priority 2016, dated 2018)
Values after ≈ are worked out from the molar mass of the structure shown. Where two headings read alike, the source gives them in different places.

Assays:
[1] = Solubility in fasted-state simulated colonic fluid (FaSSCoF) at pH 6.5; assay type: physicochemical; conditions: fasted-state simulated colonic fluid (FaSSCoF), 25 °C, pH 6.5, fassgf or other biorelevant, thermodynamic from solid, pH 6.5, 25° C.
Experimental: The solubilities of compounds of the invention in FaSSCoF at pH 6.5 are determined using a modification of a previously-reported procedure (Vertzoni, M., et al. Pharm. Res. 2010, 27, 2187-2196). In place of the bile salt extract employed in the original procedure (which extract is no longer available), the modified procedure uses a mixture of sodium taurocholate (0.15 g), glycocholic acid (0.15 g), ursodeoxycholic acid (0.05 g), cholic acid (0.05 g), and glycodeoxycholic acid (0.05 g). These five bile acids are ground together with a mortar and pestle to produce a fine white powder that is incorporated into the FaSSCoF, as outlined below.
FaSSCoF medium: Tris(hydroxymethyl)aminomethane (Tris; 0.275 g) and maleic acid (0.44 g) are dissolved in water (35 mL) to give a solution whose pH is adjusted to 6.5 by treatment with 0.5M NaOH (ca. 12 mL). The solution is then made up to 50 mL with water. A portion of this Tris/maleate buffer solution (ca. 25 mL) is added to a 0.5 L round-bottomed flask, before being treated with 0.00565 g of the bile acid mixture described above. Solutions of phosphatidylcholine (0.0111 g) in DCM (0.15 mL) and palmitic acid (0.0013 g) in DCM (0.15 mL) are added, then the organic solvent is evaporated off under reduced pressure at 40° C. until a clear solution, with no perceptible DCM odour, is achieved. The volume of the evaporated solution is adjusted to 50 mL by addition of the remainder of Tris/maleate buffer, then BSA (0.115 g) is added, before being dissolved by gentle agitation.
Solubility Determination: Test compounds are suspended in the pH 6.5 FaSSCoF medium to give a maximum final concentration of 2-10 mg/mL. The suspensions are equilibrated at 25° C. for 24 h, before being filtered through a glass fibre C filter. The filtrates are then diluted as appropriate for injection and quantification by HPLC with reference to a standard. Different volumes of the standard, diluted and undiluted sample solutions are injected and the solubilities are calculated using the peak areas determined by integration of the peak found at the same retention time as the principal peak in the standard injection.

[2] = Solubility and dissolution rate in phosphate-buffered saline (further studies); assay type: physicochemical; conditions: pH 6.5 with 0.5% by weight of simulated intestinal fluid or pH 7.2
[3] = system: IFN gamma release in PBMCs; assay: IFN gamma release in CD3/CD28 stimulated PBMC cells (assay (c)); assay type: cell-based; conditions: Homo sapiens, read-out: IC50 Values in PBMCs IFNγ
Experimental: PBMCs from healthy subjects are separated from whole blood using a density gradient (Lymphoprep, Axis-Shield Healthcare). Cells are added to a 96 well plate pre-coated with a mixture of CD3/CD28 monoclonal antibodies (0.3 μg/mL eBioscience and 3 μg/mL BD Pharmingen respectively). Compound at the desired concentration is then added to the wells and the plate left for 3 days under normal tissue culture conditions. Supernatants are harvested and IL-2 and IFN gamma release determined by Sandwich ELISA (Duo-set, R&D System). The IC50 is determined from the dose response curve.

[4] = target: c-Src (Homo sapiens (Human), UniProt P12931); assay: c-Src enzyme inhibition (FRET, Z-LYTE); assay type: biochemical
c-Src, sequence (P12931 whole entry, looked up): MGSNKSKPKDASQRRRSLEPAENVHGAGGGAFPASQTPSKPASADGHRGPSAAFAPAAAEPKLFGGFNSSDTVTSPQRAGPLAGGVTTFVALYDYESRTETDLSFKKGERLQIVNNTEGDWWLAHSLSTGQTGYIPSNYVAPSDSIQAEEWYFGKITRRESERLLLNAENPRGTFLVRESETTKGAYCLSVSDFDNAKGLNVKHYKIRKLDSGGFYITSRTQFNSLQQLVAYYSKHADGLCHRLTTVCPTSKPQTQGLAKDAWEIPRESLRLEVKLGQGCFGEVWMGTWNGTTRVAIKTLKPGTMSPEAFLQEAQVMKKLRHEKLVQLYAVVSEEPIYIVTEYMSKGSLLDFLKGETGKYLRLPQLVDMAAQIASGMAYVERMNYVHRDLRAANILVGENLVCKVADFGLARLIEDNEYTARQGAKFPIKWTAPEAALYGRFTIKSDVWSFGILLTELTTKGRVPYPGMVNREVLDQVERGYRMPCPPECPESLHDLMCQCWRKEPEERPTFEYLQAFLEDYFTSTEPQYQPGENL
Experimental: (§1) The enzyme inhibitory activities of compounds disclosed herein are determined by FRET using synthetic peptides labelled with both donor and acceptor fluorophores (Z-LYTE, Invitrogen Ltd., Paisley, UK).
(§2) The inhibitory activities of compounds of the invention against c-Src and Syk enzymes (Invitrogen), are evaluated in a similar fashion to that described hereinabove. The relevant enzyme (3000 ng/mL or 2000 ng/mL respectively, 2.5 μL) is incubated with the test compound (either 1 μg/mL, 0.1 μg/mL, 0.01 μg/mL, or 0.001 μg/mL, 2.5 μL each) for 2 hr at RT. The FRET peptides (8 μM. 2.5 μL), and appropriate ATP solutions (2.5 μL, 800 μM for c-Src, and 60 μM ATP for Syk) are then added to the enzymes/compound mixtures and the mixture incubated for 1 hr. Development reagent (protease, 5 μL) is added for 1 hr prior to detection in a fluorescence microplate reader (Varioskan® Flash, ThermoFisher Scientific).
(§3) In all cases, the site-specific protease cleaves non-phosphorylated peptide only and eliminates the FRET signal. Phosphorylation levels of each reaction are calculated using the ratio of coumarin emission (donor) over fluorescein emission (acceptor), for which high ratios indicate high phosphorylation and low ratios indicate low phosphorylation levels. […]

[5] = system: IL-8 release in PBMCs; assay: LPS-induced IL-8 release in PBMC cells (assay (b)); assay type: cell-based; conditions: Homo sapiens, LPS-stimulated PBMCs
Description: Peripheral blood mononuclear cells (PBMCs) from healthy subjects are separated from whole blood using a density gradient (Lymphoprep, Axis-Shield Healthcare). […] The supernatant is harvested for determination of IL-8 and TNFα concentrations by sandwich ELISA (Duo-set, R&D systems) and read on the fluorescence microplate reader (Varioskan® Flash, ThermoFisher Scientific).

[6] = target: p38 MAPKα (Homo sapiens (Human), UniProt Q16539); assay: p38 MAPKα enzyme inhibition (FRET, Z-LYTE; Method 2); assay type: biochemical
p38 MAPKα, sequence (Q16539 whole entry): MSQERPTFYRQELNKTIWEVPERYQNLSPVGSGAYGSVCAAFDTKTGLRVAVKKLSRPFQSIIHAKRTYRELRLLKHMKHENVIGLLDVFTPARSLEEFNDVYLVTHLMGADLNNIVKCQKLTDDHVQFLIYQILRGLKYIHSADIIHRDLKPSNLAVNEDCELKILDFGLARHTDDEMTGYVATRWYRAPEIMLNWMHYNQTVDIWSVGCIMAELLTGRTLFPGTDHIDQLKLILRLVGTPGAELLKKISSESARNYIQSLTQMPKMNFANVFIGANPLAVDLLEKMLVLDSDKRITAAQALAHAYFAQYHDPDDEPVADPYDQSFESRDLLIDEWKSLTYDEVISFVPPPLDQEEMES
Experimental: as §1
The inhibitory activities of test compounds against the p38 MAPKα isoform (MAPK14: Invitrogen) are evaluated indirectly by determining the level of activation/phosphorylation of the down-stream molecule, MAPKAP-K2. The p38 MAPKα protein (80 ng/mL, 2.5 μL) is mixed with the test compound (2.5 μL of either 4 μg/mL, 0.4 μg/mL, 0.04 μg/mL or 0.004 μg/mL) for 2 hr at RT. […] The mixture is incubated for 1 hr at RT. Development reagent (protease, 5 μL) is added for 1 hr prior to detection in a fluorescence microplate reader (Varioskan® Flash, ThermoFisher Scientific).
This method follows the same steps as Method 1 above, but utilises a higher concentration of the p38 MAPKα protein (2.5 μL of 200 ng/mL protein instead of 2.5 μL of 80 ng/mL protein) for mixing with the test compound (tested at either 1 μg/mL, 0.1 μg/mL, 0.01 μg/mL or 0.001 μg/mL).
as §3

[7] = system: Jurkat cells; assay: Cell cytotoxicity assay, Jurkat cell viability (assay (r)); assay type: cell-based, human; conditions: 24 hours
Experimental: 1×10^5 Jurkat cells (immortalised human T lymphocytes) are added to the appropriate number of wells of a 96 well plate in 100 μL of media (RPMI supplemented with 10% foetal bovine serum). 1 μL of DMSO control (final concentration 1.0% v/v) or test compound (final concentration 20, 5 or 1 μg/mL) is added to the wells and incubated at 37° C., 5% CO2. After 24 hours, the plate is centrifuged at 1200 rpm for 3 minutes and the supernatant discarded. Cells are then resuspended in 150 μL (final concentration 7.5 μg/mL) of propidium iodide (PI) in PBS and incubated at 37° C., 5% CO2 for 15 minutes. After 15 minutes, cells are analysed by flow cytometry (BD accuri) using the FL3 window. The % viability is calculated as the % of cells that are P negative in the test wells normalised to the DMSO control.

[8] = target: Syk (Homo sapiens (Human), UniProt P43405); assay: Syk enzyme inhibition (FRET, Z-LYTE); assay type: biochemical
Experimental: as §1, §2, §3

[9] = Run 1, read-out: pH 6.5 FaSSCoF Solubility Run 1
[10] = Run 2, read-out: pH 6.5 FaSSCoF Solubility Run 2

IC50 [4] [nM]	IC50 [6] [nM]	IC50 [8] [nM]	Compound	solubility thermodynamic at 24 h [1, 9] [µg/mL]	solubility thermodynamic at 24 h [1, 10] [µg/mL]	Dissolution rate relative to Reference Compounds A (hydrochloride salt) and B [2]	Solubility relative to Reference Compounds A (hydrochloride salt) and B [2]	IC50 [3] [nM]	IC50 [5] [nM]	% Viability at 1 μg/mL [7] [%]	% Viability at 5 μg/mL [7] [%]	% Viability at 20 μg/mL [7] [%]
–	–	–	COc1cc(Nc2cc(Oc3ccc(NC(=O)Nc4cc(C(C)(C)C)cc(NS(C)(=O)=O)c4OC)c4ccccc34)ccn2)cc(OCCOCCOCC(=O)[O-])c1.[Na+] [Example 31, 2-(2-(2-(3-((4-((4-(3-(5-(tert-Butyl)-2-methoxy-3-(methylsulfonamido)phenyl)ureido)-naphthalen-1-yl)oxy)pyridin-2-yl)amino)-5-methoxyphenoxy)ethoxy)ethoxy)acetic acid, sodium salt]	1900	2100	faster dissolution rate	more soluble than	–	–	–	–	–
14	23	8	COc1cc(Nc2nccc(Oc3ccc(NC(=O)Nc4cc(C(C)(C)C)cc(NS(C)(=O)=O)c4OC)c4ccccc34)n2)cc(OCCOCCOCC(=O)O)c1 [Example 2, 2-(2-(2-(3-((4-((4-(3-(5-(tert-Butyl)-2-methoxy-3-(methylsulfonamido)phenyl)ureido)-naphthalen-1-yl)oxy)pyrimidin-2-yl)amino)-5-methoxyphenoxy)ethoxy)ethoxy)acetic acid]	90 (≈ 110 µM)	60 (≈ 73.3 µM)	–	–	39.4	24.6	99	99	97
–	–	–	COCC(=O)Nc1cc(Oc2ccc(NC(=O)Nc3cc(C(C)(C)C)nn3-c3ccc(C)cc3)c3ccccc23)ccn1 [Reference compound, N-(4-(4-(3-(3-tert-butyl-1-p-tolyl-1H-pyrazol-5-yl)ureido)naphthalen-1-yloxy)pyridin-2-yl)-2-methoxyacetamide, reference compound]	–	–	–	–	–	–	29	26	24
